Structures can show the parent of a compound that is named as a salt. Peptide text beside a SMILES is read from it.

From patent US20230414699A1, “TREATMENT OF DERMATOLOGICAL CONDITIONS” (MC2 Therapeutics Ltd, priority 2020, published 2023) come the findings set out here.

The first test concerns Bovine Serum Albumin (BSA). The test can be described thus: In vitro protein carbamylation assay (14C-potassium cyanate, BSA). The note with it: 10 mM nucleophile, 75 μM BSA, 25 μM 14C-potassium cyanate, 37° C., 72 hours, n=3. Type of test: biochemical. Here is the method:
200 μL of a 0.5% BSA solution, 200 μL of test solution and 100 μL of a 5 μCi/mL ^14C-Potassium Cyanate solution was mixed in an Eppendorf tube (corresponding to a final concentration of 75 μM BSA, 25 μM ^14C-Potassium Cyanate, and 10 mM nucleophile). Samples run in triplicates (n=3). The Eppendorf tubes were incubated at 37° C. for 72 hours (if not otherwise stated).
After incubation a volume of 100 μL of each sample was transferred to a new Eppendorf tube containing 100 μL of a 10% trichloroacetic acid (TCA) and kept at 4° C. overnight (for precipitation of BSA). Subsequently, the precipitated BSA was separated from the buffer by centrifugation (10000 rpm, 30 seconds). The supernatant was removed and the BSA pellet was resuspended in 200 μL of a 10% solution of cold TCA (4° C.). The pellet was recovered by centrifugation (10000 rpm, 30 seconds) and supernatant was discarded. The BSA pellet was resuspended in 100 μL purified water (MilliQ) and transferred to a scintillation vial. The Eppendorf tube (previously containing the BSA pellet) was rinsed with an additional 100 μL purified water which al was transferred to the relevant scintillation vial.
For the compound Ser-Pro, the “Degree of carbamylation (% relative to HBSS control)” value came out at 26.4%.

In the case of Pro-Ser, the “Degree of carbamylation (% relative to HBSS control)” value is recorded as 41.9%.

For `CC(=O)N[C@@H](CS)C(=O)O` [Acetylcysteine, reference compound], the “Degree of carbamylation (% relative to HBSS control)” value is listed as 14.3%.

Regarding `CC1=NCC[C@@H](C(=O)O)N1` [Ectoine, reference compound], the “Degree of carbamylation (% relative to HBSS control)” value was 97.9%.

Consider Ala-Gln, for which the “Degree of carbamylation (% relative to HBSS control)” value was determined as 34.8%.

Regarding Gly-Gly, the “Degree of carbamylation (% relative to HBSS control)” value amounted to 26.6%.

With `COC(=O)[C@H](Cc1ccccc1)NC(=O)[C@@H](N)CC(=O)O` [Aspartame] (HELM PEPTIDE1{D.F.[CO[*:1]]}$$$$V2.0), the “Degree of carbamylation (% relative to HBSS control)” value is reported as 30.4%.

On to Lys-Pro, for which the “Degree of carbamylation (% relative to HBSS control)” value was found to be 28.6%.

For the compound `Cl.N=C(N)NCCC[C@H](N)C(=O)O` [Arg*HCl], the “Degree of carbamylation (% relative to HBSS control)” value is recorded as 66.1%.

Regarding Tyr-Pro, the “Degree of carbamylation (% relative to HBSS control)” value was 32.8%.

On to `CC(C)C[C@H](NC(=O)[C@@H](O)[C@H](N)Cc1ccccc1)C(=O)O` [Bestatin, reference compound], for which the “Degree of carbamylation (% relative to HBSS control)” value is recorded as 53.4%.

Regarding Val-Tyr, the “Degree of carbamylation (% relative to HBSS control)” value turned out to be 28.9%.

Ala-Glu: the “Degree of carbamylation (% relative to HBSS control)” value turned out to be 20.4%.

Take Ile-Pro: the “Degree of carbamylation (% relative to HBSS control)” value is reported as 41.4%.

Consider Tyr-Ala, for which the “Degree of carbamylation (% relative to HBSS control)” value is listed as 26.1%.

In the case of `NCCNCC(=O)O` [N-β-aminoethyl-Gly], the “Degree of carbamylation (% relative to HBSS control)” value is 29.7%.

Consider Val-Pro, for which the “Degree of carbamylation (% relative to HBSS control)” value was determined as 22.1%.

With Gly-His, the “Degree of carbamylation (% relative to HBSS control)” value turned out to be 22.6%.

Take `N[C@@H](Cc1c[nH]cn1)C(=O)O` [Histidine]: the “Degree of carbamylation (% relative to HBSS control)” value is 61.1%.

Consider Gly-Ser, for which the “Degree of carbamylation (% relative to HBSS control)” value stood at 33.1%.

In the case of Tetraglycine, the “Degree of carbamylation (% relative to HBSS control)” value is reported as 24.9%.

As for Arg, the “Degree of carbamylation (% relative to HBSS control)” value turned out to be 52.4%.

The test is the same for the next values; noted with them: 10 mM nucleophile, 37° C., 72 hours; dissolved in HBSS:DMSO 90:10; neutralized by equimolar NaOH before use.
Consider `CC(N)C12CC3CC(CC(C3)C1)C2.Cl` (stereo not drawn) [Rimantadine*HCl, reference compound], for which the “Degree of carbamylation (% relative to HBSS control)” value is on record as 78.5%.

On to `CN(C)C(=N)NC(=N)N.Cl` [Metformin*HCl, reference compound], for which the “Degree of carbamylation (% relative to HBSS control)” value was 71.4%.

Still in this test, the particulars now being: 10 mM nucleophile, 37° C., 72 hours; neutralized by equimolar NaOH before use.
Take “Sitagliptine phosphate [reference compound]”: the “Degree of carbamylation (% relative to HBSS control)” value was 48.6%.

With `NNCCc1ccccc1` [Phenelzine sulfate, reference compound], the “Degree of carbamylation (% relative to HBSS control)” value is listed as 9.8%.

As to `N=C(N)c1ccc(OCCCCCOc2ccc(C(=N)N)cc2)cc1` [Pentamidine diisethionate, reference compound], the “Degree of carbamylation (% relative to HBSS control)” value stood at 43.1%.

The same test, now with this note: text statement referring to Example 3.
In the case of `CC1=NCC[C@@H](C(=O)O)N1` [Ectoine, reference compound], the “degree of carbamylation (%) relative to HBSS control, in words” value is “high degree of carbamylation”.

The subject of another test is reconstructed human skin (EpiDermFT). The experiment in a line: Histological analysis (H&E) of reconstructed human skin samples treated with urea:isocyanate. Type of test: cell-based. The conditions noted are these: 0.5 M urea:isocyanate 99:1 + 200 μL 2% nucleophile solution, six days; vs control treated with only urea:isocyanate. Here is the method:
Epiderm Full Thickness (Epiderm FT, MatTek Corp., USA) tissues were transferred to B6 trays containing EpiDerm™ Full Thickness Maintenance Medium (MatTek Corp., USA) immediately upon arrival and incubated for 24 hours at 37° C. and 5% CO2. […] At day 6, the treatment solutions and the maintenance medium were removed from the tissues, and pre-warmed phosphate buffered saline (DPBS, Sigma-Aldrich) was added and removed twice before the tissues were submitted for ELISA and histological analysis. The 7 different conditions were tested on four different tissues where one tissue from each treatment was submitted for ELISA and the remaining three tissues were submitted for histological analysis. Overview of Treatment Solutions Added to the Apical Compartment • 1. […] EpiDermFT membranes were app. 1 cm in diameter and were fixed in formalin for 5 days. Membranes were cut into halves using a scissors and placed into histogel matrix aiming at having the cut surface as the tissue sectioning surface. The samples were dehydrated in alcohol and xylene and embedded in paraffin using a standard paraffin embedding procedure. Sections were cut at 4 μm for Hematoxylin and Eosin (H&E) staining and immunohistochemistry (IHC). Images were acquired using a 20× objective with a Zeiss AxioScan. Representative areas were selected for presentation. […]
Turning to `N[C@@H](CC(=O)N1CCn2c(nnc2C(F)(F)F)C1)Cc1cc(F)c(F)cc1F` [Sitagliptin], the “attachment of epidermis / reduction of skin damage (H&E, FIG. 3)” value is given as “least effect”.

The test system of the next test is reconstructed human skin (Epiderm Full Thickness). The test can be described thus: In vitro protein carbamylation assay using reconstructed human skin (Protein Carbamylation Sandwich ELISA). Type of test: cell-based. The note with it: 0.5 M urea:isocyanate 99:1 + 200 μL 2% nucleophile solution, apical, six days. Here is the method: Epiderm Full Thickness (Epiderm FT, MatTek Corp., USA) tissues were transferred to B6 trays containing EpiDermTM Full Thickness Maintenance Medium (MatTek Corp., USA) immediately upon arrival and incubated for 24 hours at 37° C. and 5% CO2. […] At day 6, the treatment solutions and the maintenance medium were removed from the tissues, and pre-warmed phosphate buffered saline (DPBS, Sigma-Aldrich) was added and removed twice before the tissues were submitted for ELISA and histological analysis. The 7 different conditions were tested on four different tissues where one tissue from each treatment was submitted for ELISA and the remaining three tissues were submitted for histological analysis. Overview of Treatment Solutions Added to the Apical Compartment • 1. […] The concentration used was selected to resemble the approximate concentration of urea in urine (Liu et. al. 2012). Experimental procedure for protein extraction was modified from Ross-Hansen et al., 2014 and Palosuo et al., 1998. The cell covered […] filters (Mattek) were cut from the plastic insertion ring, and the cell layer gently peeled of the membrane with a scalpel. […] Samples were analysed undiluted in a Protein Carbamylation Sandwich ELISA (Cell Biolabs Inc cat no STA-877).
(In general: ELISA stands for enzyme-linked immunosorbent assay.)
On to `N[C@@H](CC(=O)N1CCn2c(nnc2C(F)(F)F)C1)Cc1cc(F)c(F)cc1F` [Sitagliptin], for which the “inhibition of protein carbamylation (ELISA, FIG. 2)” value was “did not show complete inhibition”.
